# US20250388582A1, “NOVEL BICYCLIC HETEROARYL COMPOUND AND USE THEREOF” (ILDONG PHARMACEUTICAL CO., LTD., priority 2022, published 2025)
# Target: T1, human GST-PIKFYVE (Homo sapiens, UniProt Q9Y2I7)
# T1 construct: GST; purchased Carna biosciences 11-118
# Experiment: ADP-Glo kinase assay, enzyme inhibition activity against human PIKFYVE (Carna biosciences)
# Format: biochemical
# Conditions: inhibitory activity at final compound concentration 10 nM; 1 hour at room temperature
# Method: The enzyme inhibition activity values for the compounds according to Examples against human PIKFYVE were calculated using the ADP-Glo™ kinase assay service of Carna biosciences, Inc. The enzyme activity evaluation method provided by Carna biosciences Inc., is shown below.
# Enzyme inhibition activity was evaluated by reacting the compounds according to Examples with human GST-PIKFYVE (11-118, Carna biosciences), which was purified using glutathione Sepharose chromatography. The reaction buffer used was composed of 50 mmol/L MOPS, 1 mmol/L DTT, and pH 7.2, and all reactions of the test distilled water were performed in the buffer.
# Compounds were prepared as solutions in 100% DMSO as 100× stocks and adjusted to have a final sample concentration of 10 nM.
# The substrate-enzyme reaction for PIKFYVE was performed by mixing 5 μL human GST-PIKFYVE, 5 μL compounds according to Examples, 5 μL enzyme substrate, and 5 μL purified ATP and reacting for 1 hour at room temperature. After the substrate-enzyme reaction, 20 μL ADP-Glo™ Reagent was added and reacted at room temperature for 40 minutes, then 40 μL Kinase Detection Reagent was added and reacted at room temperature for 40 minutes.
# After completion of the reaction, the degree of enzyme activity inhibition was measured by luminescence. The fluorescence of the enzyme activity in the solvent control group […] was set to 100%, and the fluorescence of the enzyme activity in the solvent control group without compound treatment was set to 0%. The inhibitory activity of each compound according to Examples was calculated based on these values.
# T1 sequence (Q9Y2I7 whole entry): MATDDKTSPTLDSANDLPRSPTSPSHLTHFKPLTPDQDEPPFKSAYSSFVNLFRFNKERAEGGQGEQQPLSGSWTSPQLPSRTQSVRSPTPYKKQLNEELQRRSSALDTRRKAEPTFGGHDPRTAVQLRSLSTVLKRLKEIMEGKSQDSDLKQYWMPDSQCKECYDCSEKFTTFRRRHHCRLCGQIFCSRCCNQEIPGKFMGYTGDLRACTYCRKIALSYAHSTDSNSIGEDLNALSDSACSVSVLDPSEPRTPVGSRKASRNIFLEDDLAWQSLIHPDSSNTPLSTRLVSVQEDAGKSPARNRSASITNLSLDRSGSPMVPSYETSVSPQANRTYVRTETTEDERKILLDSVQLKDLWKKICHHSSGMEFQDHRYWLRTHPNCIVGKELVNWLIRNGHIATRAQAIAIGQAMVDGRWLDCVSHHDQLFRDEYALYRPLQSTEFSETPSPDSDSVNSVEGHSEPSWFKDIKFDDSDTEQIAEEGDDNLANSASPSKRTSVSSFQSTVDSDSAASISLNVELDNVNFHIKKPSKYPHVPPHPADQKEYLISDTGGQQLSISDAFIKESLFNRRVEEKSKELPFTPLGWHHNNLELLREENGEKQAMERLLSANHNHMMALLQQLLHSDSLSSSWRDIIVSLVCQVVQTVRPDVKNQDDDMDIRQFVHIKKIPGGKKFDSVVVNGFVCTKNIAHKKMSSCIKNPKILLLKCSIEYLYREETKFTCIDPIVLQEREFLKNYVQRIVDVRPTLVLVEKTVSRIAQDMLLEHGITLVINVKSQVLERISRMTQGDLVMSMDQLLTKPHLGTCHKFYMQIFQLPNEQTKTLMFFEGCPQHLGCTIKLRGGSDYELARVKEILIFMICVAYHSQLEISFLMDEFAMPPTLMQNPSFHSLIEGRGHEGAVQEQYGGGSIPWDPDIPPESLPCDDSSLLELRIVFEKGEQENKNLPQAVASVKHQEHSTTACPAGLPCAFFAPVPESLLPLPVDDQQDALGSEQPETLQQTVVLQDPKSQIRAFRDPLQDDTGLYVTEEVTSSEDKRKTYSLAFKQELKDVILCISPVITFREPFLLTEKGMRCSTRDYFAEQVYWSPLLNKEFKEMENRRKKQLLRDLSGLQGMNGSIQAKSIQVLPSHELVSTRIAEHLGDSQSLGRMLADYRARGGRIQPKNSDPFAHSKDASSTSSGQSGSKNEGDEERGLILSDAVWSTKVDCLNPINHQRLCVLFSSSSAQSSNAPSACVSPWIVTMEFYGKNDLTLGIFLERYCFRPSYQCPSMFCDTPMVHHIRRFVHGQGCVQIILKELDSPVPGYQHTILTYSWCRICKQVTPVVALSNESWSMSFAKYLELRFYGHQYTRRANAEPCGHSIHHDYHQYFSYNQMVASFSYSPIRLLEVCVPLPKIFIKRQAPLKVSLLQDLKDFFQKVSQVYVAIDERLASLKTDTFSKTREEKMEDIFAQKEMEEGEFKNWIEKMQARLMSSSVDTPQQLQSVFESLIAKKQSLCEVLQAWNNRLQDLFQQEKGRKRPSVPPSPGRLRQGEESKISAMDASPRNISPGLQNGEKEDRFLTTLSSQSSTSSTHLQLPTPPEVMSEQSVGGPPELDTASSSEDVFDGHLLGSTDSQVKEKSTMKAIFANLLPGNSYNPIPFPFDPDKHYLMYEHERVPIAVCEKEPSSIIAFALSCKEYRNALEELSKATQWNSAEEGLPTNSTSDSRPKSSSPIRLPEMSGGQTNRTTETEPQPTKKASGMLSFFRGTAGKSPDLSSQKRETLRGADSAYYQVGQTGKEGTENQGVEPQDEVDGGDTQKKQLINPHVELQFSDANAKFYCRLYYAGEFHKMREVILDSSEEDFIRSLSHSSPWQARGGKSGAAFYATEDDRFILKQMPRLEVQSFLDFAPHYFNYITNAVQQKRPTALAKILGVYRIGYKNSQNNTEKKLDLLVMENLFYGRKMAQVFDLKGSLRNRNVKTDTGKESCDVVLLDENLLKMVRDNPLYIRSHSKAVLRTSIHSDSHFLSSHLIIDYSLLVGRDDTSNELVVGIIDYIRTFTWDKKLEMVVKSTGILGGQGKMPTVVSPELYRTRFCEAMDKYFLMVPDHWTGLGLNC
row,"ADP-Glo kinase assay (%, 10 nM) [%]",Structure (SMILES)
1,63.89,"Cc1cccc(/C=N/Nc2nc(N3CCOCC3)nc3c2nc(C)n3-c2ccccn2)c1 [Example 164, (E)-4-(8-methyl-6-(2-(3-methylbenzylidene)hydrazinyl)-9-(pyridin-2-yl)-9H-purin-2-yl)morpholine]"
2,68.47,"Cc1ccccc1/C=N/n1cnc2c(Nc3ccncc3)nc(N3CCOCC3)nc21 [Example 167, (E)-9-((2-methylbenzylidene)amino)-2-morpholino-N-(pyridin-4-yl)-9H-purin-6-amine]"
3,87.26,"Cc1ccc(/C=N/n2cnc3c(Nc4ccncc4)nc(N4CCOCC4)nc32)cc1 [Example 168, (E)-9-((4-methylbenzylidene)amino)-2-morpholino-N-(pyridin-4-yl)-9H-purin-6-amine]"
4,89.56,"C(=N\n1cnc2c(Nc3ccncc3)nc(N3CCOCC3)nc21)/c1ccccc1 [Example 169, (E)-9-(benzylideneamino)-2-morpholino-N-(pyridin-4-yl)-9H-purin-6-amine]"
5,79.60,"FC(F)(F)c1cccc(/C=N/n2cnc3c(Nc4ccncc4)nc(N4CCOCC4)nc32)c1 [Example 170, (E)-2-morpholino-N-(pyridin-4-yl)-9-((3-(trifluoromethyl)benzylidene)amino)-9H-purin-6-amine]"
6,86.73,"Clc1cccc(/C=N/n2cnc3c(Nc4ccncc4)nc(N4CCOCC4)nc32)c1 [Example 171, (E)-9-((3-chlorobenzylidene)amino)-2-morpholino-N-(pyridin-4-yl)-9H-purin-6-amine]"
7,90.96,"COc1cccc(/C=N/n2cnc3c(Nc4ccncc4)nc(N4CCOCC4)nc32)c1 [Example 172, (E)-9-((3-methoxybenzylidene)amino)-2-morpholino-N-(pyridin-4-yl)-9H-purin-6-amine]"
8,73.94,"COc1ccc(/C=N/n2cnc3c(Nc4ccncc4)nc(N4CCOCC4)nc32)cc1 [Example 173, (E)-9-((4-methoxybenzylidene)amino)-2-morpholino-N-(pyridin-4-yl)-9H-purin-6-amine]"
9,55.44,"COc1ccc(Nc2nc(N3CCOCC3)nc3c2ncn3/N=C/c2cccc(C)c2)cc1 [Example 178, (E)-N-(4-methoxyphenyl)-9-((3-methylbenzylidene)amino)-2-morpholino-9H-purin-6-amine]"
10,63.03,"Cc1cccc(/C=N/n2cnc3c(Nc4ccccc4)nc(N4CCOCC4)nc32)c1 [Example 180, (E)-9-((3-methylbenzylidene)amino)-2-morpholino-N-phenyl-9H-purin-6-amine]"
11,53.92,"Cc1ccc(Nc2nc(N3CCOCC3)nc3c2ncn3/N=C/c2cccc(C)c2)cc1 [Example 181, (E)-9-((3-methylbenzylidene)amino)-2-morpholino-N-(p-tolyl)-9H-purin-6-amine]"
12,55.65,"COc1cccc(Nc2nc(N3CCOCC3)nc3c2ncn3/N=C/c2cccc(C)c2)c1 [Example 184, (E)-N-(3-methoxyphenyl)-9-((3-methylbenzylidene)amino)-2-morpholino-9H-purin-6-amine]"
13,52.43,"Cc1cccc(/C=N/n2cnc3c(Nc4ccc(Cl)cc4)nc(N4CCOCC4)nc32)c1 [Example 186, (E)-N-(4-chlorophenyl)-9-((3-methylbenzylidene)amino)-2-morpholino-9H-purin-6-amine]"
14,52.07,"COc1ccccc1Nc1nc(N2CCOCC2)nc2c1ncn2/N=C/c1cccc(C)c1 [Example 187, (E)-N-(2-methoxyphenyl)-9-((3-methylbenzylidene)amino)-2-morpholino-9H-purin-6-amine]"

row,Structure (SMILES),"ADP-Glo kinase assay (%, 10 nM) [%]"
1,"Cc1cccc(/C=N/n2cnc3c(-n4ccnc4)nc(N4CCOCC4)nc32)c1 [Example 176, (E)-N-(6-(1H-imidazol-1-yl)-2-morpholino-9H-purin-9-yl)-1-(m-tolyl)methanimine]",56.91
